# Reference: US20260198495A1, “BINARY INSECTICIDE COMPOSITION AND USE THEREOF” (SHENYANG SINOCHEM AGROCHEMICALS R & D CO., LTD., priority 2022, published 2026)
# Experiments:
# Format in all cases: in vivo
# [1] = system: adult Phyllotreta vittuta Fabr.; experiment: Joint toxicity of I-72 + acetamiprid, Example 65, Table 65; details: 72 h
# Description: (§1) Test target: adult Phyllotreta vittuta Fabr.
# (§2) Preparation of the pesticide solution: according to different test requirements, the test samples were accurately weighed respectively with an electronic analytical balance. The technical pesticides were dissolved in acetone, and then diluted with 0.1% Tween 80 water into a series of pesticide solutions with a certain concentration gradient according to the experimental design dosage.
# (§3) Experimental method: first, uniform and consistent potted cabbage seedlings were selected. Then, uniform spraying was performed with the pesticide solution in the order from low dosage to high dosage according to the experimental design. After air-drying in the shade, adult flea beetles were transferred onto the treated cabbage seedlings, and then glass covers were put on them, with about 30-40 adult flea beetles on each seedling and 3 replicates for each treatment. In addition, a blank control was set up.
# (§4) The treated test materials were placed in an observation room, and the temperature, humidity and illumination of the observation room could be adjusted as needed. The number of dead and live insects was investigated 72 hours later.
# [2] = system: 3rd-instar larvae of Chilo suppressalis (Walker); experiment: Joint toxicity of I-72 + chlorantraniliprole, Example 57, Table 57; details: in Oryza sativa, 72 h
# Description: Test target: 3rd-instar larvae of Chilo suppressalis (Walker).
# as §2
# Experimental method: first, tender rice stems were selected and dipped in the prepared pesticide solution for 10 s in the order from low dosage to high dosage according to the experimental design. After natural air-drying in the shade, they were placed in a 9-cm-diameter Petri dish with filter paper, and uniform and healthy test insects were introduced, with 10 insects for each treatment and 3 replicates for each treatment. In addition, a blank control (CK) was set up.
# The treated test materials were placed in an observation room, and the temperature, humidity and illumination of the observation room could be adjusted as needed. The number of dead and live insects was investigated 72 hours later. […] Then, the co-toxicity coefficient of each ratio was calculated using the Sun Y-P method to evaluate the mixing effect, as in Example 1.
# [3] = system: Myzus persicae (Sulzer) nymphs; experiment: whole plant or invertebrate; details: in Brassica oleracea, 48 h
# Description: (§5) Test target: Myzus persicae (Sulzer) nymphs, a sensitive strain reared indoors.
# as §2
# (§6) Experimental method: first, cabbage leaves with uniform and consistent Myzus persicae (Sulzer) were selected, with about 30-40 insects on each leaf. Then, they were evenly sprayed with the pesticide solution in the order from low dosage to high dosage according to the experimental design, with 1.5 mL of the solution for each leaf and 3 replicates for each treatment. In addition, a blank control was set up.
# (§7) The treated test materials were placed in an observation room, and the temperature, humidity and illumination of the observation room could be adjusted as needed. The number of dead and live insects was investigated 48 hours later.
# [4] = system: adult Phyllotreta vittuta Fabr.; experiment: Joint toxicity of I-72 + cyantraniliprole, Example 63, Table 63; details: 72 h
# Description: as §1, §2, §3
# (§8) The treated test materials were placed in an observation room, and the temperature, humidity and illumination of the observation room could be adjusted as needed. The number of dead and live insects was investigated 72 hours later. […] Then, the co-toxicity coefficient of each ratio was calculated using the Sun Y-P method to evaluate the mixing effect (the same as in Example 1).
# [5] = system: Myzus persicae (Sulzer) nymphs; experiment: Joint toxicity of I-72 + cyantraniliprole, Example 59, Table 59; details: in Brassica oleracea, 48 h
# Description: as §5, §2, §6
# (§9) The treated test materials were placed in an observation room, and the temperature, humidity and illumination of the observation room could be adjusted as needed. The number of dead and live insects was investigated 48 hours later. […] Then, the co-toxicity coefficient of each ratio was calculated using the Sun Y-P method to evaluate the mixing effect (the same as in Example 1).
# [6] = system: Liriomyza sativae Blanchard larvae; experiment: Joint toxicity of I-72 + cyromazine, Example 55, Table 55; details: in Phaseolus vulgaris
# Description: Test target: Liriomyza sativae Blanchard larvae.
# as §2
# Experimental method: first, kidney bean seedlings with the Liriomyza sativae Blanchard larvae (the larvae had just invaded and formed mines) were selected. Spraying treatments were performed in the order from low dosage to high dosage according to the experimental design, with 3 replicates for each treatment. In addition, a blank control was set up.
# The treated test materials were placed in an observation room, and the temperature, humidity and illumination of the observation room could be adjusted as needed. After the larvae in the blank control group pupated, the numbers of dead and live insects were then counted. […] Then, the co-toxicity coefficient of each ratio was calculated using the Sun Y-P method to evaluate the mixing effect (the same as in Example 1).
# [7] = system: Frankliniella occidentalis nymphs; experiment: whole plant or invertebrate; details: in Phaseolus vulgaris, foliar, 48 h
# Description: Test target: Frankliniella occidentalis nymphs.
# as §2
# Experimental method: first, kidney bean leaves were selected and dipped in the prepared pesticide solution for 10 s in the order from low dosage to high dosage according to the experimental design. After natural air-drying in the shade, they were placed in a 9-cm-diameter Petri dish with filter paper, and uniform and healthy test insects were introduced, with 20-30 insects for each treatment and 3 replicates for each treatment. In addition, a blank control was set up.
# as §9
# [8] = system: 3-instar larvae of Ostrinia furnacnlis Guenee; experiment: Joint toxicity of I-72 + flubendiamide, Example 61, Table 61; details: in Zea mays, 72 h
# Description: Test target: 3-instar larvae of Ostrinia furnacnlis Guenee.
# as §2
# Experimental method: first, tender corn stems were selected and dipped in the prepared pesticide solution for 10 s in the order from low dosage to high dosage according to the experimental design. After natural air-drying in the shade, they were placed in a 9-cm-diameter Petri dish with filter paper, and uniform and healthy test insects were introduced, with 10 insects for each treatment and 3 replicates for each treatment. In addition, a blank control was set up.
# as §8
# [9] = system: 2nd-instar larvae of Mythimna separata; experiment: Joint toxicity of I-72 + hexaflumuron, Example 56, Table 56; details: in Zea mays, foliar, 72 h
# Description: Test target: 2nd-instar larvae of Mythimna separata.
# as §2
# Experimental method: first, corn leaves were selected and dipped in the prepared pesticide solution for 10 s in the order from low dosage to high dosage according to the experimental design. After natural air-drying in the shade, they were placed in a 9-cm-diameter Petri dish with filter paper, and uniform and healthy test insects were introduced, with 10 insects for each treatment and 3 replicates for each treatment. In addition, a blank control was set up.
# as §8
# [10] = system: Nilaparvata lugens (Stal) nymphs; experiment: Joint toxicity of I-72 + imidacloprid, Example 70, Table 70; details: 72 h
# Description: Test target: Nilaparvata lugens (Stal) nymphs, a sensitive strain reared indoors.
# as §2
# Experimental method: the activity of the mixture against the Nilaparvata lugens (Stal) nymphs was determined by adopting the potted-seedling spraying method. First, rice seedlings were planted in culture pots. Uniform spraying was performed with the pesticide solution in the order from low dosage to high dosage according to the experimental design, with 2 mL for each seedling. Then, Nilaparvata lugens nymphs of uniform size were transferred onto the rice seedlings, with 3 replicates for each treatment. In addition, a blank control was set up.
# as §8
# [11] = system: Aphis citricola van der Goot nymphs; experiment: Joint toxicity of I-72 + nicotine, Example 72, Table 72; details: A = compound I-72, B = nicotine, apple leaf spraying, 48 hours
# Description: Test target: Aphis citricola van der Goot nymphs.
# as §2
# Experimental method: first, apple leaves with uniform and consistent Aphis citricola van der Goot were selected, with about 30-40 insects on each leaf. Then, they were evenly sprayed with the pesticide solution in the order from low dosage to high dosage according to the experimental design, with 1.5 mL for each leaf and 3 replicates for each treatment. In addition, a blank control was set up.
# as §9
# [12] = system: Aphis gossypii Glover nymphs; experiment: Joint toxicity of I-72 + nitenpyram, Example 67, Table 67; details: 48 h
# Description: Test target: Aphis gossypii Glover nymphs, a sensitive strain reared indoors.
# as §2
# Experimental method: first, cotton leaves with uniform and consistent Aphis gossypii were selected, with about 30-40 insects on each leaf. Then, they were evenly sprayed with the pesticide solution in the order from low dosage to high dosage according to the experimental design, with 1.5 mL for each leaf and 3 replicates for each treatment. In addition, a blank control was set up.
# as §9
# Aphis craccivora nymphs = experiment: whole plant or invertebrate; details: in Vicia faba, 48 h
# Description: Test target: Aphis craccivora nymphs, a sensitive strain reared indoors.
# as §2
# Experimental method: first, broad bean seedlings with uniform and consistent Aphis craccivora were selected, with about 30-40 insects on each seedling. Then, they were evenly sprayed with the pesticide solution in the order from low dosage to high dosage according to the experimental design, with 1.5 mL of the solution for each leaf and 3 replicates for each treatment. In addition, a blank control was set up.
# as §7
# [13] = system: 2nd-instar larvae of Spodoptera exigua Hübner; experiment: whole plant or invertebrate; details: A = compound I-72, B = tetrachlorantraniliprole; cabbage leaf dipping; 72 hours
# Description: Test target: 2nd-instar larvae of Spodoptera exigua Hübner.
# as §2
# (§10) Experimental method: first, cabbage leaves were selected and dipped in the prepared pesticide solution for 10 s in the order from low dosage to high dosage according to the experimental design. After natural air-drying in the shade, they were placed in a 9-cm-diameter Petri dish with filter paper, and uniform and healthy test insects were introduced, with 10 insects for each treatment and 3 replicates for each treatment. In addition, a blank control was set up.
# as §4
# [14] = system: 2nd-instar larvae of Plutella xylostella; experiment: Joint toxicity of I-72 + tetraniliprole, Example 58, Table 58; details: A = compound I-72, B = tetraniliprole; cabbage leaf dipping; 72 hours
# Description: Test target: 2nd-instar larvae of Plutella xylostella.
# as §2, §10, §8
# [15] = system: Bemisia tabaci (Gennadius) nymphs; experiment: Joint toxicity of I-72 + thiacloprid, Example 71, Table 71; details: in Gossypium hirsutum, 96 h
# Description: Test target: Bemisia tabaci (Gennadius) nymphs, a sensitive strain reared indoors.
# as §2
# Experimental method: first, cotton leaves with neat and consistent Bemisia tabaci (Gennadius) nymphs were selected and made into leaf disks, with about 20 insects on each leaf disk. Then, they were evenly sprayed with the pesticide solution in the order from low dosage to high dosage according to the experimental design, with 1.5 mL for each leaf and 3 replicates for each treatment. In addition, a blank control was set up.
# The treated test materials were placed in an observation room, and the temperature, humidity and illumination of the observation room could be adjusted as needed. The number of dead and live insects was investigated 96 hours later. […] Then, the co-toxicity coefficient of each ratio was calculated using the Sun Y-P method to evaluate the mixing effect (the same as in Example 1).
# [16] = system: 3rd-instar larvae of Yponomeuta evonymallus (Linnaeus); experiment: Joint toxicity of I-72 + thiamethoxam, Example 66, Table 66; details: A = compound I-72, B = thiamethoxam; leaf dipping; 72 hours
# Description: Test target: 3rd-instar larvae of Yponomeuta evonymallus (Linnaeus).
# as §2
# Experimental method: first, Hylotelephium spectabile leaves were selected and dipped in the prepared pesticide solution for 10 s in the order from low dosage to high dosage according to the experimental design. After natural air-drying in the shade, they were placed in a 9-cm-diameter Petri dish with filter paper, and uniform and healthy test insects were introduced, with 10 insects for each treatment and 3 replicates for each treatment. In addition, a blank control was set up.
# as §4
# [17] = system: Thrips flavus Schrank nymphs; experiment: Joint toxicity of I-72 + tolfenpyrad, Example 62, Table 62; details: in Solanum melongena, 48 h
# Description: Test target: Thrips flavus Schrank nymphs.
# as §2
# Experimental method: first, eggplant seedlings with Thrips flavus Schrank were selected, and the base number was counted. Then, uniform spraying was performed with the pesticide solution in the order from low to high doses according to the experimental design, with 2 mL for each seedling and 3 replicates for each treatment. In addition, a blank control was set up.
# as §9
compound,measurement,setting,value
C/C(=N\C#N)N(C)Cc1ccc(Cl)nc1 [acetamiprid],LC50,[1],7.92 µg/mL
CNC(=O)c1cc(Cl)cc(C)c1NC(=O)c1cc(Br)nn1-c1ncccc1Cl [chlorantraniliprole],LC50,[2],1.2 µg/mL
CN/C(=N\[N+](=O)[O-])NCc1cnc(Cl)s1 [clothianidin],LC50,[3],0.513 µg/mL
CNC(=O)c1cc(C#N)cc(C)c1NC(=O)c1cc(Br)nn1-c1ncccc1Cl [cyantraniliprole],LC50,[4],36.2 µg/mL
same,LC50,[5],1.18 µg/mL
Nc1nc(N)nc(NC2CC2)n1 [cyromazine],LC50,[6],5.06 µg/mL
CN/C(=N/CC1CCOC1)N[N+](=O)[O-] (stereo not drawn) [dinotefuran],LC50,[7],75.3 µg/mL
Cc1cc(C(F)(C(F)(F)F)C(F)(F)F)ccc1NC(=O)c1cccc(I)c1C(=O)NC(C)(C)CS(C)(=O)=O [flubendiamide],LC50,[8],1.02 µg/mL
O=C(NC(=O)c1c(F)cccc1F)Nc1cc(Cl)c(OC(F)(F)C(F)F)c(Cl)c1 [hexaflumuron],LC50,[9],5.57 µg/mL
O=[N+]([O-])NC1=NCCN1Cc1ccc(Cl)nc1 [imidacloprid],LC50,[10],4.9 µg/mL
CN1CCC[C@H]1c1cccnc1 [nicotine],LC50,[11],8.19 µg/mL
CCN(Cc1ccc(Cl)nc1)/C(=C/[N+](=O)[O-])NC [nitenpyram],LC50,[12],0.384 µg/mL
CC(c1ccc(C(F)(F)F)nc1)S(C)(=O)=NC#N (stereo not drawn) [sulfoxaflor],LC50,Aphis craccivora nymphs,0.197 µg/mL
CNC(=O)c1cc(Cl)cc(Cl)c1NC(=O)c1cc(Br)nn1-c1ncc(Cl)cc1Cl [tetrachlorantraniliprole],LC50,[13],0.6491 µg/mL
CNC(=O)c1cc(C#N)cc(C)c1NC(=O)c1cc(Cn2nnc(C(F)(F)F)n2)nn1-c1ncccc1Cl [tetraniliprole],LC50,[14],0.0810 µg/mL
N#C/N=C1\SCCN1Cc1ccc(Cl)nc1 [thiacloprid],LC50,[15],6.26 µg/mL
CN1COCN(Cc2cnc(Cl)s2)/C1=N\[N+](=O)[O-] [thiamethoxam],LC50,[16],358.9351 µg/mL
CCc1nn(C)c(C(=O)NCc2ccc(Oc3ccc(C)cc3)cc2)c1Cl [tolfenpyrad],LC50,[17],28.6 µg/mL
